# Earlier results in patent US7087637B2, “Substituted indoles which are PARP inhibitors” (BASF AG, priority 2000, dated 2006).
# Conditions: S. Cuzzocrea et al., Br. J. Pharmacol. 1997, 121, 1065–1074
structure (smiles),measurement,value
NC(=O)c1cccc(N)c1 [3-aminobenzamide],effects in a model of circulatory shock,protective effects
